{"source": "patent US11506670B2", "about": "“Method of genome-wide direct identification of electrophile-sensing targets” (Cornell University, priority 2018, dated 2022)", "key": {"Ube2N": {"target": "T1, Ube2N (Homo sapiens, UniProt P61088)", "T1 construct": "expressed in transfected cells; host or cells: HEK 293T", "experiment": "Biotin azide/streptavidin pulldown of HNEylated proteins from mammalian lysate", "format": "cell-based", "conditions": "HEK293T, Halo-(FLAG)-Ube2V2 and HA-Ube2N", "description": "HEK 293T cells were seeded in 60 cm^2 plate. After the cells reached 60% confluence (˜18-24 h), the old media were replaced with fresh 8 mL complete media. Cells were transfected with 7.5 μg of the designated plasmids encoding the HaloTag fusion gene and 30 μL PEI (1 mg/mL) in 600 μL in Opti-MEM media for 24-36 h after which the cells were treated with 25 μM Ht-PreHNE or without alkyne (control) for 2.5 h. Rinsing and light shining protocol were as described above. Cells were harvested, washed twice with chilled 1× DPBS and flash frozen.\nMammalian cell lysis was performed in 200 μL of lysis buffer containing in final concentrations 50 mM HEPES (pH 7.6), 150 mM NaCl, 1% Nonidet P-40 and 1× Roche cOmplete, mini, EDTA-free protease inhibitor cocktail by rapid freeze-thaw (×3). Lysate was clarified by centrifugation at 18,000×g for 30 min at 4° C.\nTotal protein concentration from either mammalian cell lysate or zebrafish lysate was determined using Bradford assay with BSA as standard. The lysate was subsequently diluted to 2 mg/mL with a buffer made up of 50 mM HEPES (pH 7.6) and 0.3 mM TCEP, and subjected to Click reaction with biotin azide for 30 min at 37° C. The final concentrations of each components were: 1% SDS, 5% t-BuOH, 200 μM Biotin azide, 2 mM TCEP, 0.9 mM CuSO4 and 0.1 mM Cu(TBTA). The lysate proteins were precipitated by adding 4 volumes of EtOH pre-chilled at −20° C. […]"}, "[1]": {"test_system": "HaloTag-fused proteins of interest (POI)", "experiment": "T-REX targeting efficiency by Click coupling, in-gel fluorescence", "format": "cell-based", "conditions": "equation of Step 40A (ix)", "description": "(i) For mammalian cells, add 15 μL freshly prepared lysis buffer (50 mM Hepes pH 7.6, 0.3 mM TCEP and 1% Nonidet p-40) to mammalian cell pellets from Step 2A above and subject to 3 cycles of freeze-thaw. For E. coli cells, resuspend cell pellet in 100 μL lysis buffer consisting of 50 mM HEPES pH 7.6, 2 mM TCEP, 1% Nonidet p-40, 150 μg/mL Lysozyme, 5 μg/mL DNAse-I. Incubate for 20 min at room temperature with agitation. For mammalian cells make sure the cells are resuspended well in lysis buffer.\n(iv) Dilute a portion of the clarified lysate to 1 mg/mL in a final volume of ˜25 μL containing 50 mM Hepes pH 7.6, 0.3 mM TCEP, and 0.2 mg/mL His6-TEV-S219V. Incubate at 37° C. for 45 min. The optimal concentration of lysate protein is ˜1.0 mg/mL. High concentration of lysate protein causes failure of Click coupling. Precipitates may appear upon adding His6-TEV-S219V. […]\n(vii) Upon completion of the gel-electrophoresis, rinse the gel with ddH2O 20 mL (×2, 5 min) and analyze for Cy5 signal using a ChemiDoc-MP imaging system (Bio-Rad) (see Equipment Setup). Any alternative fluorescence gel imager platforms can be used in this step. […]\n(x) Bio-Rad Image Lab™ software is used to quantitate the intensities of Cy5 signal and western blot signal. […] Click on “Analysis table” to generate the quantitated signal intensities corresponding to selected bands. […]"}}, "data": [{"molecule": "CCCCCC(O)/C=C/C=O", "note": "(centres unmarked) [HNE, 4-hydroxynonenal]", "values": [{"measurement": "HNEylation of Ube2N during T-REX delivery to Ube2V2 (affinity capture)", "setting": "Ube2N", "result": "no detectable HNEylation of Ube2N"}, {"measurement": "targeting efficiency", "setting": "[1]", "result": "10-40%"}]}]}
